Results as given in patent US20170334899A1, “AMINO-SUBSTITUTED ISOTHIAZOLES” (Bayer Pharma Aktiengesellschaft, priority 2014, published 2017).

Target: T1, human kinase Mps-1 (Homo sapiens, UniProt P33981)
T1 construct: N-terminally GST-tagged human full length recombinant Mps-1 kinase; GST (N); purchased Invitrogen, Karslruhe, Germany PV4071
T1 sequence (P33981 1-857): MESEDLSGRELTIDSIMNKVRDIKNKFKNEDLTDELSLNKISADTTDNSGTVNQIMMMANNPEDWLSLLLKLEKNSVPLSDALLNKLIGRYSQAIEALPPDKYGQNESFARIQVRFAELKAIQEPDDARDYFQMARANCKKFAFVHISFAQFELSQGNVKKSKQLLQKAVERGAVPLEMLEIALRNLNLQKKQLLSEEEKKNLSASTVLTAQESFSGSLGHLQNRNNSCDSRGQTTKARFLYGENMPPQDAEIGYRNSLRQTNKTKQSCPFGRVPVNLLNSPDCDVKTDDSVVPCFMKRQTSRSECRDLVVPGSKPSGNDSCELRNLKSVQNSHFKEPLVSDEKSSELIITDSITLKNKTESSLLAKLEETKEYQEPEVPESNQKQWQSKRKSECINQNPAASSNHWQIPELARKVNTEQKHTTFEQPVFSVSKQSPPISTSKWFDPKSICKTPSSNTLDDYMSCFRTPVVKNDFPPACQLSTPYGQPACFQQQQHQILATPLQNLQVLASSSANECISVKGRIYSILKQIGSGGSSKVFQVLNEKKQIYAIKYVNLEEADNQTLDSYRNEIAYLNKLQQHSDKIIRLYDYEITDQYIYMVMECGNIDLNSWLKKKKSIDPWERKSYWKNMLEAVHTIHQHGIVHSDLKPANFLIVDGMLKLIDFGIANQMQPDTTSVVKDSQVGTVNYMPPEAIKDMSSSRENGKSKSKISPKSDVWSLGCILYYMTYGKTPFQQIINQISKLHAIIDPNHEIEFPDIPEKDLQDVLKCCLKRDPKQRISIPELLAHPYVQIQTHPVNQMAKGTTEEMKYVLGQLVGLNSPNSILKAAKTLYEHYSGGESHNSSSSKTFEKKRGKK
Experiment: Mps-1 kinase assay (TR-FRET)
Format: biochemical
Details: Mps-1 TR-FRET kinase assay; avg; read-out: Mps1 avg (IC50 [mol/l])
Experimental: The human kinase Mps-1 phosphorylates a biotinylated substrate peptide. Detection of the phosphorylated product is achieved by time-resolved fluorescence resonance energy transfer (TR-FRET) from Europium-labelled anti-phospho-Serine/Threonine antibody as donor to streptavidin labelled with cross-linked allophycocyanin (SA-XLent) as acceptor. Compounds are tested for their inhibition of the kinase activity.
N-terminally GST-tagged human full length recombinant Mps-1 kinase (purchased from Invitrogen, Karslruhe, Germany, cat. no PV4071) was used. As substrate for the kinase reaction a biotinylated peptide of the amino-acid sequence biotin-Ahx-PWDPDDADITEILG (C-terminus in amide form, purchased from Biosyntan GmbH, Berlin) was used.
For the assay 50 nl of a 100-fold concentrated solution of the test compound in DMSO was pipetted into a black low volume 384we11 microtiter plate (Greiner Bio-One, Frickenhausen, Germany), 2 μl of a solution of Mps-1 in assay buffer [0.1 mM sodium-ortho-vanadate, 10 mM MgCl2,2 mM DTT, 25 mM Hepes pH 7.7, 0.05% BSA (w/v), 0.001% Pluronic F-127] were added and the mixture was incubated for 15 min at 22° C. to allow pre-binding of the test compounds to Mps-1 before the start of the kinase reaction. Then the kinase reaction was started by the addition of 3 μl of a solution of 16.7 μM adenosine-tri-phosphate (ATP, 16.7 μM=>final conc. in the 5 μl assay volume is 10 μM) and peptide substrate (1.67 μM=>final conc. in the 5 μl assay volume is 1 μM) in assay buffer and the resulting mixture was incubated for a reaction time of 60 min at 22° C. The concentration of Mps-1 in the assay was adjusted to the activity of the enzyme lot and was chosen appropriate to have the assay in the linear range, typical enzyme concentrations were in the range of about 0.5 nM (final conc. in the 5 μl assay volume). The reaction was stopped by the addition of 5 μl of a solution of TR-FRET detection reagents (100 mM Hepes pH 7.4, 0.1% BSA, 40 mM EDTA, 140 nM Streptavidin-XLent [#61GSTXLB, Fa. Cis Biointernational, Marcoule, France], 1.5 nM anti-phospho(Ser/Thr)-Europium-antibody [#AD0180, PerkinElmer LAS, Rodgau-Jugesheinn, Germany]. Instead of the 1.5 nM anti-phospho(Ser/Thr)-Europium-antibody a mixture of 2 nM unlabeled anti-phospho ser/thr-pro antibody MPM-2 [Millipore cat. #05-368] and 1 nM LANCE EU-W1024 labeled anti-mouse IgG antibody [Perkin-Elmer, product no. AD0077] can be used).
The resulting mixture was incubated 1 h at 22° C. to allow the binding of the phosphorylated peptide to the anti-phospho(Ser/Thr)-Europium-antibody. Subsequently the amount of phosphorylated substrate was evaluated by measurement of the resonance energy transfer from the Europium-labelled anti-phospho(Ser/Thr) antibody to the Streptavidin-XLent. Therefore, the fluorescence emissions at 620 nm and 665 nm after excitation at 350 nm was measured in a Viewlux TR-FRET reader (PerkinElmer LAS, Rodgau-Jugesheinn, Germany). The “blank-corrected normalized ratio” (a Viewlux specific readout, similar to the traditional ratio of the emissions at 665 nm and at 622 nm, in which blank and Eu-donor crosstalk are subtracted from the 665 nm signal before the ratio is calculated) was taken as the measure for the amount of phosphorylated substrate. The data were normalised (enzyme reaction without inhibitor=0% inhibition, all other assay components but no enzyme=100% inhibition).

For `Cc1nsc(Nc2cnc(C(F)(F)F)cn2)c1C(=O)Nc1ccc(OC2CCN(CC(F)(F)F)CC2)nc1` [Example 9, -Methyl-N-(6-{[1-(2,2,2-trifluoroethyl)piperidin-4-yl]oxy}pyridin-3-yl)-5-{[5-(trifluoromethyl)pyrazin-2-yl]amino}-1,2-thiazole-4-carboxamide], which IC50 is on record?
The IC50 was at least 20 µM.

`Cc1nsc(Nc2cnc3ccccc3n2)c1C(=O)Nc1ccc(C(=O)NC2CN(C(=O)OC(C)(C)C)CC(F)(F)C2)cc1` (stereo not shown) [Example 158, tert-butyl 3,3-difluoro-5-{[4-({[3-methyl-5-(quinoxalin-2-ylamino)-1,2-thiazol-4-yl]carbonyl}amino)benzoyl]amino} piperidine-1-carboxylate] was tested. Which IC50 did it give?
The IC50 was over 20 µM.

`Cc1nsc(Nc2cnc(C(F)(F)F)cn2)c1C(=O)Nc1ccc(O[C@@H]2CCN(CC(F)F)C[C@@H]2F)nc1` [Example 137, N-(6-{[(3S,4R)-1-(2,2-difluoroethyl)-3-fluoropiperidin-4-yl]oxy}pyridin-3-yl)-3-methyl-5-{[5-(trifluoromethyl)pyrazin-2-yl]amino}-1,2-thiazole-4-carboxamide] was tested. Which IC50 did it give?
The IC50 was over 20 µM.

With `Cc1nsc(Nc2cnc3ccccc3n2)c1C(=O)Nc1ccc(Oc2cccc(C(F)(F)F)c2)nc1` [Example 117, 3-Methyl-5-(quinoxalin-2-ylamino)-N-{6-[3-(trifluoromethyl)phenoxy]pyridin-3-yl}-1,2-thiazole-4-carboxamide] as the molecule, how does the IC50 read?
Its IC50 is at least 20 µM.

How did the IC50 turn out when `Cc1nsc(Nc2cnc(C(F)(F)F)cn2)c1C(=O)Nc1ccc(OC2CCN(CC(F)F)CC2)nc1` [Example 8, N-(6-{[1-(2,2-Difluoroethyl)piperidin-4-yl]oxy}pyridin-3-yl)-3-methyl-5-{[5-(trifluoromethyl)pyrazin-2-yl]amino}-1,2-thiazole-4-carboxamide] was run?
The IC50 was at least 20 µM.

How did the IC50 turn out when `CCNS(=O)(=O)c1ccc(NC(=O)c2c(C)nsc2Nc2cnc3ccccc3n2)cc1` [Example 116, N-[4-(Ethylsulfamoyl)phenyl]-3-methyl-5-(quinoxalin-2-ylamino)-1,2-thiazole-4-carboxamide] was run?
Its IC50 is at least 20 µM.

`Cc1nsc(Nc2cnc(C(F)(F)F)cn2)c1C(=O)Nc1ccc(OC2CCNCC2)nc1` [Example 6, 3-Methyl-N-[6-(piperidin-4-yloxy)pyridin-3-yl]-5-{[5-(trifluoromethyl)pyrazin-2-yl]amino}-1,2-thiazole-4-carboxamide] was tested. Which IC50 did it give?
The IC50 was at least 20 µM.

With `CCCN1CC[C@H](Oc2ccc(NC(=O)c3c(C)nsc3Nc3cnc(C(F)(F)F)cn3)cn2)[C@H](F)C1` [Example 147, N-(6-{[(3R,4S)-3-fluoro-1-propylpiperidin-4-yl]oxy}pyridin-3-yl)-3-methyl-5-{[5-(trifluoromethyl)pyrazin-2-yl]amino}-1,2-thiazole-4-carboxamide] as the molecule, how does the IC50 read?
The IC50 was over 20 µM.

For `Cc1nsc(Nc2cnc(C(F)(F)F)cn2)c1C(=O)Nc1ccc(OC[C@@H]2CCN(CC(F)(F)F)C2)nc1` [Example 128, 3-Methyl-N-(6-{[(3R)-1-(2,2,2-trifluoroethyl)pyrrolidin-3-yl]methoxy}pyridin-3-yl)-5-{[5-(trifluoromethyl)pyrazin-2-yl]amino}-1,2-thiazole-4-carboxamide], which IC50 is on record?
Its IC50 is over 20 µM.

With `Cc1nsc(Nc2cnc(C(F)(F)F)cn2)c1C(=O)Nc1ccc(C(=O)OC(C)(C)C)cc1` [Example 96, tert-Butyl 4-{[(3-methyl-5-{[5-(trifluoromethyl)pyrazin-2-yl]amino}-1,2-thiazol-4-yl)carbonyl]amino}benzoate] as the molecule, how does the IC50 read?
Its IC50 is at least 20 µM.

For `Cc1nsc(Nc2ccc(C#N)cn2)c1C(=O)Nc1ccc(NC2CCCN(C(=O)OC(C)(C)C)C2)nc1` (stereo not shown) [Example 171, tert-butyt 3-({5-[({5-[(5-cyanopyridin-2-yl)amino]-3-methyl-1,2-thiazol-4-yl}carbonyl)amino]pyridin-2-yl}amino)piperidine-1-carboxylate], which IC50 is on record?
Its IC50 is over 20 µM.

How did the IC50 turn out when `Cc1nsc(Nc2cc(C#N)ccn2)c1C(=O)Nc1ccc(Oc2cccnc2)nc1` [Example 119, 5-[(4-Cyanopyridin-2-yl)amino]-3-methyl-N-[6-(pyridin-3-yloxy)pyridin-3-yl]-1,2-thiazole-4-carboxamide] was run?
The IC50 was at least 20 µM.

For `Cc1nsc(Nc2cnc(C(F)(F)F)cn2)c1C(=O)Nc1ccc(C(=O)NCCN2CCCC(F)(F)C2)cc1` [Example 153, N-(4-{[2-(3,3-difluoropiperidin-1-yl)ethyl]carbamoyl}phenyl)-3-methyl-5-{[5-(trifluoromethyl)pyrazin-2-yl]amino}-1,2-thiazole-4-carboxamide], which IC50 is on record?
The IC50 was over 20 µM.

Which IC50 does the source give for `Cc1nsc(Nc2cnc3ccccc3n2)c1C(=O)Nc1ccc(N2CCOCC2)nc1` [Example 169, 3-methyl-N-[6-(morpholin-4-yl)pyridin-3-yl]-5-(quinoxalin-2-ylamino)-1,2-thiazole-4-carboxamide] here?
Its IC50 is over 20 µM.

Which IC50 does the source give for `Cc1nsc(Nc2cncc(C(F)(F)F)n2)c1C(=O)Nc1ccc(OCC2CCCN(C(=O)OC(C)(C)C)C2)nc1` (stereo not shown) [Example 166, tert-butyl 3-{[(5-{[(3-methyl-5-{[6-(trifluoromethyl)pyrazin-2-yl]amino}-1,2-thiazol-4-yl)carbonyl]amino}pyridin-2-yl)oxy]methyl}piperidine-1-carboxylate] here?
Its IC50 is over 20 µM.

For `Cc1nsc(Nc2cnc3ccccc3n2)c1C(=O)Nc1cccc(C(=O)N[C@H](C(=O)O)[C@@H](C)OC(C)(C)C)c1` [Example 104, O-tert-Butyl-N-[3-({[3-methyl-5-(quinoxalin-2-ylamino)-1,2-thiazol-4-yl]-carbonyl}amino)benzoyl]threonine], which IC50 is on record?
The IC50 was 16 µM.

For `Cc1nsc(Nc2cncc(C(F)(F)F)n2)c1C(=O)Nc1ccc(C(=O)NC2CCN(CC(F)(F)F)CC2)cc1` [Example 167, 3-methyl-N-(4-{[1-(2,2,2-trifluoroethyl)piperidin-4-yl]carbamoyl}phenyl)-5-{[6-(trifluoromethyl)pyrazin-2-yl]amino}-1,2-thiazole-4-carboxamide], which IC50 is on record?
Its IC50 is over 20 µM.

How did the IC50 turn out when `COC(=O)CNC(=O)c1cccc(NC(=O)c2c(C)nsc2Nc2cnc3ccccc3n2)c1` [Example 100, Methyl N-[3-({[3-methyl-5-(quinoxalin-2-ylamino)-1,2-thiazol-4-yl]carbonyl}amino)-benzoyl]glycinate] was run?
Its IC50 is 12 µM.

Which IC50 does the source give for `Cc1nsc(Nc2ccc(C#N)cn2)c1C(=O)Nc1ccc(C(=O)OC(C)(C)C)cc1` [Example 98, tert-Butyl 4-[({5-[(5-cyanopyridin-2-yl)amino]-3-methyl-1,2-thiazol-4-yl}carbonyl)-amino]benzoate] here?
Its IC50 is at least 20 µM.
